Converted amounts (≈) assume the structure as drawn.
What was measured:
[1] = system: A/WY/03/2003 (H3N2) influenza virus; format: cell-based, influenza A virus in MDCK cells
A/WY/03/2003 = format: cell-based, influenza A virus in MDCK cells
[2] = system: influenza virus strain A/Wyoming/03/2003 (H3N2); format: cell-based, influenza A virus in MDCK cells
influenza virus = format: cell-based, influenza virus in MDCK cells

CCOC(=O)C([C@H]1C=C[C@@H](O)C1)[N+](=O)[O-] (stereo partly drawn) [EHCN, ethyl-(2R/S, 1′R,4′S)-2-(4′-hydroxy-2′-cyclopenten-1′-yl)-2-nitroacetate]
protection (cell viability assay) [1]: 75%
EC50 against A/WY/03/2003 (A/WY/03/2003): 4.5 µg/mL (≈ 20.9 µM)
cytopathic effect (CPE) observed under the microscope [2]: did not present complete CPE
plaque formation / antiviral activity in plaque reduction assay (influenza virus): fewer and smaller plaques than the untreated wells

From US8318804B2 (priority 2007, dated 2012)
